This assay deals with closed head injury (CHI). The assay can be described thus: Closed head injury (CHI) model, neurological severity score, Sabra mice. In kind it is in vivo. The settings on record: SR144528 1 mg/kg i.p. 1 h after CHI, 24 h to 14 day, vs vehicle control. On the procedure:
The study was conducted according to the guidelines of the Institutional Animal Care Committee of the Hebrew University. Male Sabra mice weighing 35 to 50 g were used in all experiments. Animals were kept under controlled light conditions with a 12 h/12 h light/dark cycle. Experimental closed head injury (CHI) was induced using a modified weight drop device developed in our laboratory as described previously (Chen et al., 1996). At 1 h after CHI, the functional status of the mice was evaluated according to a set of 10 neurobehavioral tasks, namely the neurological severity score (NSS). This score is based on the ability of the mice to perform 10 different tasks (Beni-Adani et al., 2001) that evaluate their motor ability, balance, and alertness. One point is given for failing to perform a task. […] A score of 10 reflects maximal neurologic impairment, and a decrease of NSS during the recovery period indicates partial recovery of function.
Data was analyzed using the Prism 4.02 programme (GraphPad Software, San Deigo, Calif., USA). The data are expressed as mean±SEM and statistical significance was assessed with one way analysis of variance (ANOVA) followed by a Dunnett's post-hoc analysis for TNF-α levels. Nonparametric NSS values were compared between the two groups at each time point.
In this study four groups of mice were subjected to CHI (n=10/group and control n=9), after which the following agents were administered: • Group 1 (Control): Vehicle only (ethanol:cremophor:saline at ratio of 1:1:18), 1 h after CHI. • Group 2: HU-910, 0.1 mg/kg, dissolved in vehicle (1:1:18 ethanol:cremophor:saline), i.p. 1 h after CHI. • Group 3: HU-910, 1.0 mg/kg, dissolved in vehicle (1:1:18 ethanol:cremophor:saline), i.p. 1 h after CHI. • Group 4: HU-910, 10.0 mg/kg, dissolved in vehicle (1:1:18 ethanol:cremophor:saline), i.p. 1 h after CHI.
In this study four groups of mice were subjected to CHI (n=9/group), after which the following agents were administered: • Group 1 (Control): Vehicle only (ethanol:cremophor:saline at ratio of 1:1:18), 1 h after CHI. • Group 2: HU-910, 10 mg/kg, dissolved in vehicle (1:1:18 ethanol:cremophor:saline), i.p. 1 h after CHI. • Group 3: Specific CB2 antagonist SR144528 (N-[(1S)-endo-1,3,3-trimethylbicyclo[2.2.1]heptan-2-yl]-5-(4-chloro-3-methylphenyl)-1-(4-methylbenzyl)pyrazole-3 carboxamide), (see M. Rinaldi-Carmona, et al. J. Pharmacol. Exp. Ther. 284 (1998) 644-650), 1 mg/kg, i.p. 1 h after CHI. • Group 4: Specific CB2 antagonist (SR144528, N-[(1S)-endo-1,3,3-trimethylbicyclo[2.2.1]heptan-2-yl]-5-(4-chloro-3-methylphenyl)-1-(4-methylbenzy)pyrazole-3 carboxamide), 1 mg/kg, i.p. 1 h after CHI and HU-910 10 mg/kg administered 10 min after administration of antagonist.
In this study four groups of mice were subjected to CHI (n=7-8/group), after which the following agents were administered: • Group 1 (Control): Vehicle only (Dimethyl Sulfoxide (DMSO): Tween 80: Saline at ratio of 1:1:18), i.p. 1 h after CHI. • Group 2: HU-910, 10 mg/kg, dissolved in Vehicle, i.p. 1 h after CHI. • Group 3: Specific CB2 antagonist/inverse agonist AM630 (6-Iodo-2-methyl-1-[2-(4-morpholinyl)ethyl]-1H-indol-3-yl](4-methoxyphenyl)methanone) (Ross et al. 1999)), dissolved in Vehicle, 1 mg/kg, i.p. 1 h after CHI and HU-910, dissolved in Vehicle, 10 mg/kg administered 10 min after administration of antagonist/inverse agonist. • Group 4: Specific CB2 antagonist/inverse agonist AM630 (6-Iodo-2-methyl-1-[2-(4-morpholinyl)ethyl]-1H-indol-3-yl](4-methoxyphenyl)methanone), dissolved in Vehicle, 1 mg/kg, i.p. 1 h after CHI

Experimental findings from patent publication US9365534B2, “Arylated camphenes, processes for their preparation and uses thereof” (Yissum Research Development Company of the Hebrew …, priority 2009, dated 2016) are described below.

With “N-[(1S)-endo-1,3,3-trimethylbicyclo[2.2.1]heptan-2-yl]-5-(4-chloro-3-methylphenyl)-1-(4-methylbenzyl)pyrazole-3 carboxamide [SR144528, reference compound]”, the “extent of recovery ΔNSS, antagonist alone” value is given as “recovery was significantly reduced”.
